Laboratory results as given in patent US4636496A, “Compositions inhibiting murine MXT ductal carcinoma” (Wayne State University, priority 1986, dated 1987).
Entries after “also recorded” stand apart in the source; their conditions may differ.

Experiments:
[1] = tested on: Mammary Tumors Induced by Dimethylbenz(a)anthracene; test: Effects on mammary tumors induced by dimethylbenz(a)anthracene (DMBA), s.c. injection for 35 days; assay type: in vivo, Sprague-Dawley rats; details: for Mean tumor volume / Mean tumor no. (no. tumors/rat): 24 mg/kg s.c., 35 days, 7-10 rats/group, mean ± S.D.; for Mean tumor volume: control (None) 1.48 ± 2.09; for Mean tumor no. (no. tumors/rat): control (None) 3.30 ± 2.60; for significance of treatment results (in words): compared to control tumors, Student's t test
Excerpt: Chemicals and Reagents. Estrone, 17-beta-estradiol 3-benzoate, estrone sulfate, aryl sulfatase (EC 3.1.6.1), beta-glucuronidase (EC3.2.1.31), 7,12-dimethylbenz(a)anthracene (DMBA), and 5-fluorouracil were obtained from Sigma Chemical Co. (St. Louis, Mo.). 4-Nitroestrone 3-methyl ether, 4-nitroestrone, and 2,4-dinitroestrone were synthesized by the procedures of Tomson et al., supra.
Animals. Virgin female Sprague-Dawley rats (The Charles River Co., Wilmington, Mass.) were housed 4 to 6/cage in a light (12 hr/day)--and temperature (24°)--controlled room and given a diet of Wayne Lab-Blox laboratory chow (Allied Mills, Inc., Chicago, Ill.) and tap water ad libitum. At 50 days of age, rats were intubated with DMBA (10 mg/100 g body weight) dissolved in sesame oil (20 mg/ml). Beginning at Day 45 after intubation, all animals were weighed and palpated once per week. Tumor volumes were calculated by measuring 2 diameters with a caliper and the third dimension with a ruler, then by substituting values:
where a, b, and c are the 3 different diameters of the tumor. The agreement of the in vivo tumor volume and measurements of excised tumors identified at necropsy was 95 to 99%. When about 75% of rats had palpable tumors (81 to 92 days after intubation), the animals were randomized, excluding rats with tumors larger than 2.00 ml and rats with more than 5 tumors/animal. The mean initial tumor volumes in control and treated groups ranged between 0.4 and 0.9 cu cm over the various experiments. When necessary, ovariectomy (ether anesthesia) was performed on the first or second day after the initiation of the study. The significance of difference between treatment groups was examined by Student's t test.
Estrogen derivatives (>99% pure by thin-layer chromatography) were injected s.c. daily (Monday to Friday). After distribution in SSV (steroid-suspending vehicles, 0.9% NaCl solution with 0.5% sodium carboxymethyl-cellulose-7, 0.4% polysorbate; and 0.9% benzylalcohol, obtained from the National Cancer Institute), the steroids (20 mg/ml) were administered at 0.12 to 54 mg/kg body weight. The suspension was sonicated before use to achieve uniform distribution. 17-Beta-estradiol 3-benzoate was dissolved directly in sesame oil to a concentration of 2.5 mg/ml; 5 fluorouracil was dissolved in water (25 mg/ml). The control group was given injections of SSV or sesame oil alone.
The toxicity of all antitumor agents was determined by comparing body weights of treated and control animals.
Postmortem Examination and Histopathology of Tumors. Rats were selected for colchicine injections (2 mg/kg body weight) 2 hr prior to necropsy to obtain an accurate measurement of mitotic indices of tumors. Animals were sacrificed with CO2 gas or bled to death via the abdominal aorta. Tumors and tissues were removed and preserved in 10% neutral buffered formalin for histopathological examination. Gross anomalies of abdominal, thoracic, and cranial cavities were recorded. Uteri were removed, trimmed, and weighed fresh. Ovaries, adrenals, and pituitaries were trimmed and weighed after fixation.
Histopathological observations on hematoxylin-and iosin-stained tumor and organ sections were performed, and comparisons between the control and treated groups were carried out using computer analysis. The microscopic parameters used to judge the degree of anaplasia in DMBA-induced mammary neoplasms, when treated animals were compared to controls, were: (a) the type of epithelium or mammary tissue involved; (b) the degree of encapsulation of the neoplasm; (c) the number of mitotic figures observed; (d) the extent of stroma invasions of the neoplastic epithelium; (e) the severity of lymphocytic infiltration of the neoplasms; and (f) the regressive, degenerative, or vacuolative changes in the neoplastic epithelium. […] Histological examination was performed on all mammary tumors. […]

[2] = tested on: MXT Mouse Mammary Ductal Carcinoma; test: Subcutaneous treatment of early stage, hormone-dependent MXT mouse mammary ductal carcinoma; assay type: in vivo
[3] = target: T1, Porcine Endometrial Estrogen Sulfotransferase (Sus scrofa, UniProt A0A286ZW98); test: Inhibition of porcine endometrial estrogen sulfotransferase; assay type: biochemical; details: compared within Table III
T1 construct: from tissue; host or cells: porcine endometrium
T1 sequence (A0A286ZW98 1-296): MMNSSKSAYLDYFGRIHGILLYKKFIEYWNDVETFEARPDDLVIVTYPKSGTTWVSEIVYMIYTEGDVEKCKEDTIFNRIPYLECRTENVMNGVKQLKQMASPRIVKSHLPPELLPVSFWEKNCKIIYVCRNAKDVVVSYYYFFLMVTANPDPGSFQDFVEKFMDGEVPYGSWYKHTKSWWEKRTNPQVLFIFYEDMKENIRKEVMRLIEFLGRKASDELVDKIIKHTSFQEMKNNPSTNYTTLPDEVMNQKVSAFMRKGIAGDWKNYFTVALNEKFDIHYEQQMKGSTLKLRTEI
Procedure: Compounds prepared in the foregoing examples were evaluated as inhibitors of porcine estrogen sulfotransferase as taught by Rozhin et al., J. Biol. Chem., 252:7214-7220 (1977) and Brooks et al., U.S. Pat. No. 4,496,555.

[4] = tested on: hormone dependent mammary tumors, induced by 7,12-dimethylbenz(a)anthracene; details: cited from earlier work

Compound	Mean tumor volume [1] [cu cm]	Mean tumor no. (no. tumors/rat) [1] [no. tumors/rat]	significance of treatment results (in words) [1]	growth of MXT mouse mammary ductal carcinoma (in words) ([2]; mouse, in vivo)	T/C Value Day 39 (%) ([2]; s.c. 200 mg/kg, QD 1-19)	Time for Median Tumor to Reach 500 mg ([2]; s.c. 200 mg/kg, QD 1-19, control 18)	estrogen sulfotransferase inhibitory activity (in words) [3]	growth of hormone dependent mammary tumors (in words) ([4]; DMBA-induced)	route of administration to which utility is limited (in words) ([4]; particularly intraperitoneal or subcutaneous injection)
COc1c(Br)cc2c(c1Br)CC[C@@H]1[C@@H]2CC[C@]2(C)C(=O)CC[C@@H]12 [2,4-Dibromoestrone 3-methyl ether, 2,4-dibromoestrone 3-methyl ether]	1.24 ± 1.07	4.26 ± 2.51	insignificant	–	–	–	–	–	–
C[C@]12CC[C@@H]3c4cc([N+](=O)[O-])c(O)c([N+](=O)[O-])c4CC[C@H]3[C@@H]1CCC2=O [2,4-Dinitroestrone, 2,4-dinitroestrone]	1.14 ± 1.37	2.90 ± 1.67	insignificant	–	–	–	–	–	–
C[C@]12CC[C@@H]3c4cccc([N+](=O)[O-])c4CC[C@H]3[C@@H]1CC[C@@H]2O [4-Nitroestra-1,3,5(10)-trien-17-beta-ol]	–	–	–	inhibited the growth of MXT mouse mammary ductal carcinoma; also recorded: shown to inhibit the growth of murine MXT mammary ductal carcinoma	8.2	45	most active compound	–	–
COc1ccc2c(c1[N+](=O)[O-])CC[C@@H]1[C@@H]2CC[C@]2(C)C(=O)CC[C@@H]12 [4-Nitroestrone 3-methyl ether, 4-Nitroestrone 3-Methyl Ether]	0.05 ± 0.05	1.35 ± 0.40	–	–	–	–	–	found to inhibit the growth of hormone dependent mammary tumors	essentially limited to parental administration
C[C@]12CC[C@@H]3c4ccc(O)c([N+](=O)[O-])c4CC[C@H]3[C@@H]1CCC2=O [4-Nitroestrone, 4-nitroestrone]	0.75 ± 0.10	1.95 ± 2.60	insignificant	–	–	–	–	–	–
